Assay results reported in patent US20180296523A1, “USE OF POLYMETHOXYLATED FLAVONES TO AMELIORATE CIRCADIAN RHYTHM DISORDERS” (THE BOARD OF REGENTS OF THE UNIVERSITY OF TEXAS SY, priority 2017, published 2018).
Entries after “also recorded” stand apart in the source; their conditions may differ. Blank lines part the entries; values can stand above or below the molecule they belong to.

How the values were obtained:
[1] = system: HFD-fed WT and Clock^Δ19/Δ19 C57BL/6J mice; experiment: Diet-induced obese (DIO) mouse model, HFD-fed WT and Clock^Δ19/Δ19 mice; type: in vivo; details: for body weight gain: 10-week treatment
Protocol: For diet-induced obesity, male mice at 6 weeks of age were fed with HFD (D12492, Research Diets) until the end of the experimental protocol. The mice were treated with either vehicle (DMSO) or NOB (200 mg/kg body weight) via oral gavage every other day, in the time window of ZT8-10, throughout the experimental period. An every-other-day dosing regimen was chosen at the indicated level based on several reasons. First, previous in vivo studies have used similar overall amounts for mouse treatment (100-125 mg/kg/day) (Lee et al., 2013; Li et al., 2006). The oral gavage procedure was done in late afternoon (ZT8-10) prior to the start of their active phase, reasoning that this may coincide with the time-window adopted by previous studies. Second, daily dosing was not chosen to avoid entraining the experimental mice with the procedure per se as an artificial zeitgeber. Furthermore, pilot pharmacokinetic (PK) assays were done under a single-dose condition (Fig. S7). […] Therefore, it was reasoned that every-other day dosing helps avoid any incomplete daily clearance over the chronic experimental period (10 weeks). Weekly body weight was monitored in different treatment mice for 10 weeks. Body mass composition was measured at the end of experiments using a […] spectrometer (Bruker Optics, Texas) (Garcia et al., 2013). A control group of mice were fed with regular chow diet (Purina 5001) in parallel with the two treatment groups in HFD. For db/db and db/db Clock^[…]/[…] mice, male mice at 6-8 weeks of age were group-housed (2-3/cage) and maintained on regular chow diets. Mice were subjected to oral gavage with either DMSO or NOB as described above. Energy expenditure was examined by measuring oxygen consumption with indirect calorimetry as described (Chutkow et al., 2010; Daniels et al., 2010). After 8 weeks of treatments described above, mice from each group were placed at room temperature (22° C.-24° C.) in the chambers of a Comprehensive Lab Animal Monitoring System (CLAMS, Columbus Instruments, Columbus, Ohio). After mice adapted to the metabolic chamber, volume of O2 consumption and CO2 production was continuously recorded over a 24-hr period. Average O2 consumption was calculated and compared between different treatments. Food and water were provided ad libitum. To measure food intake, food pellets were weighted every three hours over a 24-hr period in mice treated as above. The daily food intake was calculated from averaged food intake of 3 independent experiments. Serum samples were obtained at ZT2 from treated mice as previously described (Jeong et al., 2015). Hepatic triglyceride and cholesterol were extracted as previously described (Liu et al., 2012). The triglyceride and cholesterol levels in liver and serum were assessed by Serum Triglyceride Determination Kit (Sigma) and Cholesterol Assay Kit (Cayman), respectively. The assay plates were read by a TECAN M200 instrument (Tecan) following the manufacturer's instructions. Glucose tolerance test (GTT) and insulin tolerance test (ITT) were performed largely as described (He et al., 2015; Jeong et al., 2015). Briefly, after overnight and 5-hr fasting, GTT and ITT were conducted at ZT2 and ZT8 respectively. Glucose levels were measured from tail blood before and 15, 30, 60, or 120 min after injection of either 1 g/kg glucose or 0.75 U/kg insulin (Sigma) at ZT2 and ZT8 respectively by using the ONETOUCH UltraMini blood glucose monitoring system (LifeScan). Serum insulin levels were measured with the Rat/Mouse Insulin Elisa kit (Millipore) according to the manufacturer's instructions. The plasma samples were collected at ZT2 as described above for lipid assays. For microscopic analysis of lipid accumulation in liver, tissue samples were collected and immediately embedded in Tissue-Tek OCT cryostat molds (Leica) and then frozen at -80° C. Tissue sections were stained in 0.5% Oil Red O and counterstained with Mayer's hematoxylin for 1 min. […]

RORα-LBD = target: T1, RORα-LBD (Homo sapiens, UniProt P35398); experiment: Radioligand receptor binding assay with 25-[3H]-OHC, RORα-LBD; details: in the presence of 4.5 nM 25-[3H]-OHC
T1 sequence (P35398 272-510 limits assumed): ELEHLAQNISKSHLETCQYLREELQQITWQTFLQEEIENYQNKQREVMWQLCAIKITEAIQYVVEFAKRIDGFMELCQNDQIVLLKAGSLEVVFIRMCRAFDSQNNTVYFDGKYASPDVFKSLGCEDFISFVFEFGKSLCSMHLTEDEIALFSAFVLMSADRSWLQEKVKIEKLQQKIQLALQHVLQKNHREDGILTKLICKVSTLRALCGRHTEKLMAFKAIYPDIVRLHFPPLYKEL
Protocol: (§1) Ligand binding was determined by filter binding assays to calculate the Kd value. […] Ki was determined using the Cheng-Prusoff equation.

RORγ-LBD = target: T2, RORγ-LBD (Homo sapiens, UniProt P51449); experiment: Radioligand receptor binding assay with 25-[3H]-OHC, RORγ-LBD; details: in the presence of 4.5 nM 25-[3H]-OHC
T2 sequence (P51449 269-508 limits assumed): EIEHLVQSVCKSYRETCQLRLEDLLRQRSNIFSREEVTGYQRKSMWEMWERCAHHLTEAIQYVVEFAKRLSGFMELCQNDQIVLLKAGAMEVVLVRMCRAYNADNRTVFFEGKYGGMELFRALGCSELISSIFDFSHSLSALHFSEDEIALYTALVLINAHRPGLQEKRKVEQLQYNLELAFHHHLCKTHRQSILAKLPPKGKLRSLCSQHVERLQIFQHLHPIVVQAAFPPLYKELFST
Protocol: as §1

[2] = other studies (Kumar et al., 2012; Singh et al., 2011); cited from earlier work
[3] = HFD-fed WT mice, serum and liver

competitive binding to RORα-LBD (RORα-LBD): markedly diminished binding
competitive binding to RORγ-LBD (RORγ-LBD): markedly diminished binding
SMILES: C[C@@H]1O[C@@H](O[C@H]2[C@H](Oc3cc(O)c4c(c3)O[C@H](c3ccc(O)cc3)CC4=O)O[C@H](CO)[C@@H](O)[C@@H]2O)[C@H](O)[C@H](O)[C@H]1O [naringin, reference compound]
difference of treatment effects between WT and Clock^Δ19/Δ19 mice ([1]; HFD-fed C57BL/6J mice): largely indistinguishable
blood insulin levels ([1]; HFD-fed Clock^Δ19/Δ19 mice): decreased to similar extents
glucose tolerance (GTT) ([1]; HFD-fed Clock^Δ19/Δ19 mice): modest effects on glucose tolerance
insulin sensitivity (ITT) ([1]; HFD-fed Clock^Δ19/Δ19 mice): modest effects on insulin sensitivity
fasting blood glucose levels ([1]; HFD-fed Clock^Δ19/Δ19 mice, daytime and nighttime): failed to reduce fasting blood glucose levels
fasting glucose levels ([1]; HFD-fed WT mice): reduced fasting blood glucose levels
glucose tolerance (GTT) ([1]; HFD-fed WT mice): modest effects on glucose tolerance
insulin sensitivity (ITT) ([1]; HFD-fed WT mice): modest effects on insulin sensitivity
blood insulin levels ([1]; HFD-fed WT mice, vs vehicle): decreased to similar extents
effects on body weight gain and lipid and glucose homeostasis ([1]; HFD-fed mice, compared with nobiletin): significantly attenuated effects

SMILES: COc1ccc(-c2cc(=O)c3c(OC)c(OC)c(OC)c(OC)c3o2)cc1OC [nobiletin]
lipid droplet formation in liver ([1]; DIO WT liver): essentially abolished lipid droplet formation
liver steatosis (H&E and Oil Red O staining) ([1]; DIO WT liver): strongly improved liver steatosis
adipocyte cell size ([1]; HFD-fed Clock^Δ19/Δ19 mice): essentially unchanged
energy expenditure ([1]; HFD-fed Clock^Δ19/Δ19 mice): no increase
fat mass ([1]; HFD-fed Clock^Δ19/Δ19 mice): essentially unchanged
food intake ([1]; HFD-fed Clock^Δ19/Δ19 mice): did not change food intake
glucose and lipid homeostasis ([1]; HFD-fed Clock^Δ19/Δ19 mice): did not significantly improve
respiratory quotient ([1]; HFD-fed Clock^Δ19/Δ19 mice): no increase
body weight gain ([1]; HFD-fed Clock^Δ19/Δ19 mice): very modest reduction in body weight gain
beneficial effect on liver steatosis ([1]; HFD-fed Clock^Δ19/Δ19 mice, compared with WT mice): markedly attenuated
fasting glucose levels ([1]; HFD-fed WT mice): lowered fasting glucose levels
fat mass (body mass composition) ([1]; HFD-fed WT mice): reduction in fat mass
glucose tolerance (GTT) ([1]; HFD-fed WT mice): significantly improved
insulin sensitivity (ITT) ([1]; HFD-fed WT mice): significantly improved
respiratory quotient ([1]; HFD-fed WT mice): increased
white adipose cell size ([1]; HFD-fed WT mice): reduction
body weight gain ([1]; HFD-fed WT mice, 200 mg/kg oral every other day, vs vehicle): significantly attenuated body weight gain
total cholesterol (TC) levels [1, 3]: significantly diminished
total triglyceride (TG) levels [1, 3]: significantly diminished
oxygen consumption (energy expenditure) ([1]; HFD-fed WT mice, throughout the circadian cycle): greatly elevated oxygen consumption
blood insulin levels ([1]; HFD-fed WT mice, vs vehicle): strongly reduced
food intake ([1]; HFD-fed WT mice, vs vehicle): not significantly altered
white adipose cell size ([1]; HFD-fed WT mice, listed as NOB): reduced visceral WAT cell size
competitive binding to RORα-LBD (RORα-LBD): direct binding; also recorded: robust competitive binding
competitive binding to RORγ-LBD (RORγ-LBD): direct binding; also recorded: robust competitive binding
NOB levels 24 hr after administration [2]: able to measure NOB levels 24 hr after administration
